Measurements reported in ChEMBL document CHEMBL5230155, “Recent contributions of quinolines to antimalarial and anticancer drug discovery research” (Eur J Med Chem, 2021).
Values belong to the molecule of their own block, whether it stands above or below them.

What was measured:
[1] = system: HCT-116; experiment: Cytotoxicity against human HCT-116 cells; format: functional, cell-based
[2] = system: RPMI-8226; experiment: Cytotoxicity against human RPMI-8226 cells; format: functional, cell-based
[3] = system: RPMI-8226; experiment: Induction of apoptosis in human RPMI-8226 cells assessed as fold increase in cytochrome c level; format: functional
[4] = system: RPMI-8226; experiment: Induction of apoptosis in human RPMI-8226 cells assessed as fold increase in caspase-3 level; format: functional
[5] = system: Plasmodium falciparum
Description: Antimalarial activity against CQ-sensitive Plasmodium falciparum NF54

[6] = Inhibition of PI3K (unknown origin); design: species or system Homo sapiens
[7] = system: MDA-MB-453; experiment: Antiproliferative activity against human MDA-MB-453 cells; format: functional, cell-based
[8] = system: SNU-423; experiment: Antiproliferative activity against human SNU-423 cells; format: functional, cell-based
[9] = system: RT-112; experiment: Antiproliferative activity against human RT-112 cells; format: functional, cell-based
[10] = system: HeLa; experiment: Antiproliferative activity against human HeLa cells; format: functional, cell-based
[11] = system: MCF7; experiment: Antiproliferative activity against human MCF7 cells; format: functional, cell-based; details: Homo sapiens, MCF7
[12] = system: DLD-1; experiment: Antiproliferative activity against human DLD-1 cells; format: functional, cell-based
[13] = system: NCI-H460; experiment: Antiproliferative activity against human NCI-H460 cells; format: functional, cell-based
[14] = system: PANC-1; experiment: Antiproliferative activity against human PANC-1 cells; format: functional, cell-based
[15] = system: HT-29; experiment: Antiproliferative activity against human HT-29 cells; format: functional, cell-based
[16] = system: A-375; experiment: Antiproliferative activity against human A-375 cells; format: functional, cell-based
[17] = system: A549; experiment: Cytotoxicity against human A549 cells; format: functional, cell-based
[18] = system: G-361; experiment: Antiproliferative activity against human G-361 cells; format: functional, cell-based; details: read-out: IC50
[19] = system: Plasmodium falciparum; experiment: Antimalarial activity against CQ-sensitive Plasmodium falciparum 3D7; format: functional, organism-based
[20] = Cytotoxicity against african green monkey Vero cells; format: toxicity, cell-based; details: African green monkey (Chlorocebus sabaeus)
[21] = system: Hep 3B2; experiment: Cytotoxicity against human Hep3B cells assessed as relative value at 15 uM after 48 hrs by MTS method; format: functional
[22] = target: T1, Tyrosine-protein kinase receptor UFO (Homo sapiens, UniProt P30530); experiment: Inhibition of AXL (unknown origin)
T1 sequence (P30530 whole entry): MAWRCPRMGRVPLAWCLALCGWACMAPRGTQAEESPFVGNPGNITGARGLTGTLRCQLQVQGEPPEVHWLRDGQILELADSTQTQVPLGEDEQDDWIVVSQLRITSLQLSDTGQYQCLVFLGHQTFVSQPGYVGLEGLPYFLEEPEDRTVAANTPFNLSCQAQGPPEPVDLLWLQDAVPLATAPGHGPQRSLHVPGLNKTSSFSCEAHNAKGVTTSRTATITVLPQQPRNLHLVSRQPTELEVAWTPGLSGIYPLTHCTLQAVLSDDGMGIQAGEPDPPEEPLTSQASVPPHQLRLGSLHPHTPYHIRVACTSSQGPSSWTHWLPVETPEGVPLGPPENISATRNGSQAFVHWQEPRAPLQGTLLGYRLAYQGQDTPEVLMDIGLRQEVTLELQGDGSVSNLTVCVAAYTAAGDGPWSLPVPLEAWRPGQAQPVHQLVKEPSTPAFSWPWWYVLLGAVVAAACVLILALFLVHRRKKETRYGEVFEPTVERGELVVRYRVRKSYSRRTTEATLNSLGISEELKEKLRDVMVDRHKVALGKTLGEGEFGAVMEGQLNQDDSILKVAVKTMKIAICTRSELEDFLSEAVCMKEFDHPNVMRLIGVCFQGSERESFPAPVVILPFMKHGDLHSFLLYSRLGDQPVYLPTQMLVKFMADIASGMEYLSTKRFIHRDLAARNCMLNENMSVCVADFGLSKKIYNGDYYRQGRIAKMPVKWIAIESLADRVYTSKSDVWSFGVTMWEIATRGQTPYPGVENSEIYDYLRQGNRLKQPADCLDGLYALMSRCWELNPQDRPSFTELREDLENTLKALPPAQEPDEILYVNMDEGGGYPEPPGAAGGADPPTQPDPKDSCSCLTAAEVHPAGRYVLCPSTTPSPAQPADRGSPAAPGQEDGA

[23] = system: Plasmodium berghei; experiment: Antimalarial activity against Plasmodium berghei ANKA infected in mouse assessed increase in survival time at 20 mg/kg/day, ip for 4 days; format: functional; details: time 4 day
[24] = system: Plasmodium berghei; experiment: Antiplasmodial activity against Plasmodium berghei ANKA infected in mouse assessed as reduction in parasitaemia at 20 mg/kg/day, ip administered for 4 days; format: functional; design: scale not given: the % may be the effect or the level left; details: time 4 day
[25] = Selectivity index, ratio of IC50 for African green monkey Vero cells to IC50 for CQ sensitive Plasmodium falciparum 3D7; format: toxicity; details: read-out: Ratio IC50
[26] = system: Plasmodium falciparum; experiment: Antimalarial activity against CQ-resistant Plasmodium falciparum RKL-9; format: functional, organism-based
[27] = target: Alkaline phosphatase, germ cell type (Homo sapiens, UniProt P10696); experiment: Inhibition of human germ cell alkaline phosphatase
[28] = system: Hemozoin; experiment: Inhibition of beta-hematin formation relative to control; details: concentration not given here

Sequence of Alkaline phosphatase, germ cell type (P10696 whole entry): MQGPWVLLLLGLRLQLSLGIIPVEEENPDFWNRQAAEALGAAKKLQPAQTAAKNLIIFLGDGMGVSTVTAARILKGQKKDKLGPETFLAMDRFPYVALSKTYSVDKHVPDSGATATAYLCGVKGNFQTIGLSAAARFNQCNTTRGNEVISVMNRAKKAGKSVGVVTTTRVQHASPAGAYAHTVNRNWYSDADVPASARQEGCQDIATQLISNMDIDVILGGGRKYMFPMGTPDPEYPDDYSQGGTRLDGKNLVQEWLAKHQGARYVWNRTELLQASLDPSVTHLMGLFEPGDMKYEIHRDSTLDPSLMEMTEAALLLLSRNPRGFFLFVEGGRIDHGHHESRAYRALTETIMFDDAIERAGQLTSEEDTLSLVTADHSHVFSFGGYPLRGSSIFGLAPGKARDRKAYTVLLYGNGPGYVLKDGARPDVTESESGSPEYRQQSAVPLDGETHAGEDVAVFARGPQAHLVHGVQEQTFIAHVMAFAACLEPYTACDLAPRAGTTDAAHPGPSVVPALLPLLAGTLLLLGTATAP

Compound: Cc1ccc2nc(SCc3ccccc3)c(/C=[N+](\[O-])c3ccccc3)cc2c1
IC50 [1]: 450 nM
IC50 [2]: 450 nM
fold change (FC) [3]: 4
fold change (FC) [4]: 12

Compound: CCN1CCN(C(=S)SCCCN(c2cc(OC)c(OC)c(OC)c2)S(=O)(=O)c2cccc3cccnc23)CC1
IC50 [7]: 700 nM
IC50 [8]: 700 nM
IC50 [9]: 700 nM

Compound: CCONC(=O)c1sc(N2N=C(c3ccc(C)cc3)CC2c2cc3cc(OC)ccc3nc2Cl)nc1C (stereo not given)
IC50 [10]: 38 nM
IC50 [11]: 38 nM
IC50 [12]: 38 nM

Compound: COc1nc2ccc(C)cc2cc1Cc1cc(-c2ccccc2)n[nH]c1=O
IC50 [13]: 2200 nM
IC50 [14]: 2200 nM
IC50 [15]: 2200 nM
IC50 [16]: 2200 nM

Compound: COc1cc(N(CCCSC(=S)N2CCN(C)CC2)S(=O)(=O)c2cccc3cccnc23)cc(OC)c1OC
IC50 [7]: 700 nM
IC50 [8]: 700 nM
IC50 [9]: 700 nM

Compound: CNS(=O)(=O)Nc1nccc(Cc2c(C)c3ccc(Oc4ncccn4)cc3oc2=O)c1F [AVUTOMETINIB]
GI50 [17]: 3230 nM

Compound: Cc1ccc2cccc(OS(=O)(=O)c3ccc(CBr)cc3)c2n1
fold change (FC) [21]: 0.25

Compound: CC(=O)c1ccc(C#Cc2c(C3CC3)nc3ccccc3c2-c2ccc(F)cc2)cc1
IC50 [6]: 450 nM

Compound: [O-]/[N+](=C\c1cc2ccccc2nc1SCc1ccccc1)c1ccccc1
IC50 [1]: 450 nM
IC50 [2]: 450 nM
fold change (FC) [3]: 4
fold change (FC) [4]: 12

Compound: COc1ccc(/C=C/C(=O)c2cccc(Nc3ccnc4cc(Cl)ccc34)c2)cc1OC
Time [23]: 22.44 days
Activity [24]: 1.4%

Compound: O=C(Cn1cc(COc2ccc(Br)cc2)nn1)NCCNc1ccnc2cc(Cl)ccc12
IC50 [19]: 38.8 nM
IC50 [20]: > 5000 nM
selectivity ratio [25]: 714
IC50 [26]: 2.94 nM

Compound: O=C(Nc1nc2ccccc2s1)c1cc(O)nc2ccc(O)cc12
IC50 [27]: < 75 nM

Compound: O=S(=O)(Oc1c(Br)cc(Br)c2cccnc12)c1cccc2cccnc12
fold change (FC) [21]: 0.38

Compound: COc1ccc2nc(Cl)c(/C=C/C(=O)c3ccc(OC)c(OC)c3OC)cc2c1
inhibition [28]: 61.3%

Compound: O=C(Cn1cc(COc2ccc(Br)cc2)nn1)NCCCNc1ccnc2cc(Cl)ccc12
IC50 [19]: 38.8 nM
IC50 [20]: > 5000 nM
selectivity ratio [25]: 714
IC50 [26]: 16 nM

Compound: COc1cc2c(Oc3ccc(NS(=O)(=O)c4cc(F)ccc4F)cc3F)ccnc2cc1OCCCN1CCCC(C)C1 (stereo not given)
IC50 [22]: 21 nM

Compound: O=C(O)c1cc(C#Cc2c(C3CC3)nc3ccccc3c2-c2ccc(F)cc2)ccc1Br
IC50 [6]: 450 nM

More lines, main results first:

IC50 [5]: 4560 nM
Compound: Clc1ccc2c(N3CC(CN4CCCCC4)N=N3)ccnc2c1 (stereo not given) [listing 1 of 2 here]

IC50 [6]: 450 nM
Compound: CC(=O)c1cccc(C#Cc2c(C3CC3)nc3ccccc3c2-c2ccc(F)cc2)c1

IC50 [7]: 700 nM
IC50 [8]: 700 nM
Compound: COc1cc(N(CCCSC(=S)N2CCN(CCO)CC2)S(=O)(=O)c2cccc3cccnc23)cc(OC)c1OC
IC50 [9]: 700 nM

IC50 [5]: 4560 nM
Compound: Clc1ccc2c(N3CC(CN4CCOCC4)N=N3)ccnc2c1 (stereo not given)

IC50 [5]: 4560 nM
Compound: Clc1ccc2c(N3CC(CN4CCCC4)N=N3)ccnc2c1 (stereo not given)

IC50 [11]: 2070 nM
Compound: COc1ccc2ccc(F)c(CC(=O)N/N=C/c3ccc(C(F)(F)F)cc3)c2n1
IC50 [18]: 2070 nM

IC50 [19]: 38.8 nM
Compound: O=C(Cn1cc(-c2ccccc2)nn1)NCCCNc1ccnc2cc(Cl)ccc12
IC50 [20]: > 5000 nM

IC50 [10]: 38 nM
IC50 [11]: 38 nM
IC50 [12]: 38 nM
Compound: COc1ccc2nc(O)c(/C=C/C(=O)c3ccc(C)cc3)cc2c1

IC50 [22]: 21 nM
Compound: COc1cc2c(Oc3ccc(NS(=O)(=O)c4ccccc4C(F)(F)F)cc3F)ccnc2cc1OCCCN1CCC(C)CC1

IC50 [5]: 206 nM
Compound: Clc1ccc2c(N3CC(CN4CCCCC4)N=N3)ccnc2c1 (stereo not given) [listing 2 of 2 here]
